Assay results: US9346770B2, “Compounds having activating effect on subtypes of peroxisome proliferator-activated receptors and its preparation method and uses” (ZHEJIANG HISUN PHARMACEUTICAL CO., LTD., priority 2010, dated 2016)

Key:
[1] = target: PPARδ (Homo sapiens (Human), UniProt Q03181); test: Nuclear receptor reporter gene (luciferase) screening model, PPARδ activation in HepG2 cells; assay type: cell-based; settings: for Experiment results (relative activation fold) PPARδ: HepG2, solvent control = 1; for EC50: HepG2 reporter gene, 6 concentrations
Sequence of PPARδ (Q03181 whole entry, species assumed): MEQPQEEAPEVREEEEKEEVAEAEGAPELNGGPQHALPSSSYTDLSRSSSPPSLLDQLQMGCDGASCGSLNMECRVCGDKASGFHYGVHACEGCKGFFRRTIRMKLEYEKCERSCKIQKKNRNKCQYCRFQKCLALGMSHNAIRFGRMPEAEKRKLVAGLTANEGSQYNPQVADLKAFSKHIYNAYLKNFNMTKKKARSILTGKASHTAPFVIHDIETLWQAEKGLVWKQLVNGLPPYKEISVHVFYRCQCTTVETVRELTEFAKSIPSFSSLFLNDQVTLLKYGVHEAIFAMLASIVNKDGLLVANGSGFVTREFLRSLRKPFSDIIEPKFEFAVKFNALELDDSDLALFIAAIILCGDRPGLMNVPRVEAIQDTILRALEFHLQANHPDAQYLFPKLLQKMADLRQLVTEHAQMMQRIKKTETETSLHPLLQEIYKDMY
Sequence of PPARδ (P19793 whole entry partner, species assumed): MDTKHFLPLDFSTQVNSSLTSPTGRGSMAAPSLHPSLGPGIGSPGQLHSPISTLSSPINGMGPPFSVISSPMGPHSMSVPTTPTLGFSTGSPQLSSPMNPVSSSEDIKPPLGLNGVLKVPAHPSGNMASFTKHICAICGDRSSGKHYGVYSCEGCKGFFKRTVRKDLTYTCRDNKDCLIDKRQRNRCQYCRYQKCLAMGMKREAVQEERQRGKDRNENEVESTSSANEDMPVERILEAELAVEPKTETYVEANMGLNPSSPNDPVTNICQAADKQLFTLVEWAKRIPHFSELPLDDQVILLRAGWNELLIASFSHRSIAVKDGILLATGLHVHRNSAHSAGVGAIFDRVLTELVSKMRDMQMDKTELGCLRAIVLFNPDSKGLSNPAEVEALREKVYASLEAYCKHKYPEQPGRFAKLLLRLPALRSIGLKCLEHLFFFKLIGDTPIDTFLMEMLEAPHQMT
Source text: (§1) Using a reporter gene method, a screening model for screening a nuclear receptor agonist in living cells is designed on the basis of the principal that a nuclear receptor can activate transcription of its downstream gene after being activated. A reporter gene plasmid is constructed, in which the DNA binding sequence for the nuclear receptor (NRE) is inserted at the upstream of a luciferase gene, such that the expression of the luciferase gene is regulated by the nuclear receptor. The reporter gene plasmid is transferred into a cell simultaneously with the nuclear receptor. The nuclear receptor will be activated when a nuclear receptor agonist presents in the cell culture medium. The receptor being activated can induce the expression of the luciferase gene, while the amount of generated luciferase can be determined with its luminescent substrate. In this way, the intensity of activation of the nuclear receptor by the compound can be determined by observing the luminescence intensity. For the calibration of the experimental error caused by factors such as transfection efficiency, amount of inoculated cells, toxicity of the compound, etc, a GFP plasmid is co-transfected simultaneously as the internal reference. In the analysis of the experimental results, the luminescent values tested for all wells are calibrated with GFP values. The experimental results are expressed as relative activation fold, with a value of 1 for the solvent control. The greater the fold is, the higher the activation capacity represents.
(§2) The detailed procedure is described as follows:
(§3) Hepatocarcinoma cell HepG2 (from ATCC, American Type Culture Collection) was cultured in a DMEM medium supplemented with 10% heat-inactivated fetal bovine serum (FBS, Invitogen, Grand Island, N.Y., USA) in a T-75 culture flask (Greiner, Germany) placed in a 5% CO2 incubator at 37° C. and 100% relative humidity.
(§4) On the next day, when the cells in the 96-well culture plate grew up to 50-80% confluency, cell transfection was performed. The cell co-transfection system comprised FuGene6 transfection agent (Roche Molecular Biochemicals, Indianapolis, Ind., U.S.A.) and 60 ng DNA (10 ng hRXR, 10 ng pCMV βGal, 10 ng nuclear receptor expression plasmid RXR/PPARα, δ, γ, 30 ng GFP fluorescence reporter gene plasmid, respectively).
(§5) The cell culture medium was discarded immediately after 24 hours of transfection and replaced by 200 μl fresh DMEM medium containing the test medicament (with 10% FBS treated by activated carbon). The final concentration gradients of the test medicament were 10 μM, 5 μM, 1 μM, 0.1 μM, 0.01 μM, 0.001 μM, and 0 μM. 0.05 μM 2-bromostearic acid (purchased from Sigma, USA) was used as the positive control. The final concentration of DMSO in each well was 0.1%.
(§6) After 24 h treatment with the medicament, the cells were lysed with a lysis solution (Cell Culture Lysis buffer, Promega) and centrifuged, and the supernatant was collected. The supernatant was reacted with a fluorescence assay kit (Promega) and counted by a fluorometer (Ascent Fluoroskan FL reader, Thermo Labsystems, Finland), and the relative intensity of luciferase was determined. For the assay of the β-galactosidase activity used in the experiment as the internal reference (the internal reference for calibrating the transfection efficiency), 50 μl of the supernatant was transferred into a fresh microplate, treated with a Promega kit, and the value was read with a microplate reader at a wavelength of 405 nm (Bio-tech Instruments Inc., Winooski, Vt., USA) (Sauerberg, P.; Olsen, G. S.; Jeppesen, L.; Mogensen, J. P. et al., J. Med. Chem., 2007, 50, 1495-1503).
(§7) In the present screening protocol, it was calculated according to the activation of the receptor by the sample at 6 different concentrations.
(§8) The concentration-activity profile of the effects of a compound was fitted by carrying out iterative computation according to the following formula, and corresponding EC50 was calculated: […]

[2] = target: PPARγ (Homo sapiens (Human), UniProt P37231); test: Nuclear receptor reporter gene (luciferase) screening model, PPARγ activation in HepG2 cells; assay type: cell-based; settings: for Experiment results (relative activation fold) PPARγ: HepG2, solvent control = 1; for EC50: HepG2 reporter gene, 6 concentrations
Sequence of PPARγ (P37231 whole entry, species assumed): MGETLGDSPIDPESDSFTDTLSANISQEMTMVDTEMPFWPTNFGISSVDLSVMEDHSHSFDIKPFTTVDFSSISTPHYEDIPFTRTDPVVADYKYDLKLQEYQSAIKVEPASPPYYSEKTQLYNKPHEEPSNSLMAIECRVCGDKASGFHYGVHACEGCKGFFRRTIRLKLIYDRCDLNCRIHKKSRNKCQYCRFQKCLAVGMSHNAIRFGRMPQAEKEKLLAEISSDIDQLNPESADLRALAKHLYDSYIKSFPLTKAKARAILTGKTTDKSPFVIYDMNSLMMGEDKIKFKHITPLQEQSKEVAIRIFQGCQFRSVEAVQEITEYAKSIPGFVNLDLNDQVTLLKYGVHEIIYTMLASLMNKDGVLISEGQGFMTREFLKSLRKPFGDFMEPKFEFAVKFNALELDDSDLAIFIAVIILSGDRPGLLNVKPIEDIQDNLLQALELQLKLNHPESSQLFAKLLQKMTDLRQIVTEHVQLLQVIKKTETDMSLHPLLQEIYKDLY
Sequence of PPARγ (P19793 whole entry partner, species assumed): as the sequence (P19793 whole entry partner, species assumed) above
Source text: as §1, §2, §3, §4, §5, §6, §7, §8

[3] = target: PPARα (Homo sapiens (Human), UniProt Q07869); test: Nuclear receptor reporter gene (luciferase) screening model, PPARα activation in HepG2 cells; assay type: cell-based; settings: for Experiment results (relative activation fold) PPARα: HepG2, solvent control = 1; for EC50: HepG2 reporter gene, 6 concentrations
Sequence of PPARα (Q07869 whole entry, species assumed): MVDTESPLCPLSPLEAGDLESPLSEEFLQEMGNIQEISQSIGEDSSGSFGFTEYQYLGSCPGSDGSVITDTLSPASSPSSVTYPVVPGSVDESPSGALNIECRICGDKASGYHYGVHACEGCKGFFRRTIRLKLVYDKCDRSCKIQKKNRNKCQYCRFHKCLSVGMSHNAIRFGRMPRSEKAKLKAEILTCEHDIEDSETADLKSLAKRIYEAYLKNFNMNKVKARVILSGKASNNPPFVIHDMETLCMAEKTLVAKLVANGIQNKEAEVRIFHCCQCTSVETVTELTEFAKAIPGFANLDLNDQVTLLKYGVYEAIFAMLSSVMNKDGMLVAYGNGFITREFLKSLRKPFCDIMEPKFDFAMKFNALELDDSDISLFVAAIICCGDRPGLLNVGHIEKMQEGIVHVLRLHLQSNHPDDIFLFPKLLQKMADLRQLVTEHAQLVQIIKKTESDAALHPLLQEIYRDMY
Sequence of PPARα (P19793 whole entry partner, species assumed): as the sequence (P19793 whole entry partner, species assumed) above
Source text: as §1, §2, §3, §4, §5, §6, §7, §8

[4] = Acute toxicity (LD50, autopsy); assay type: in vivo; settings: orally
Source text: In the autopsy, no visible obvious injure was found in main visceral organs, and there was no statistical difference in the change in organ coefficient.

CCc1cc(OCCc2nc(-c3ccc([N+](=O)[O-])cc3)oc2C)ccc1CCC(=O)O [Compound 7]
Experiment results (relative activation fold) PPARδ ([1]; 0.001 uM): 1.66 fold | Experiment results (relative activation fold) PPARδ ([1]; 0.01 uM): 2.72 fold | Experiment results (relative activation fold) PPARδ ([1]; 0.1 uM): 2.99 fold | Experiment results (relative activation fold) PPARδ ([1]; 1 uM): 3.70 fold | Experiment results (relative activation fold) PPARδ ([1]; 5 uM): 3.60 fold | Experiment results (relative activation fold) PPARδ ([1]; 10 uM): 3.38 fold | EC50 [1]: 0.003 µM | Experiment results (relative activation fold) PPARγ ([2]; 0.001 uM): 1.29 fold | Experiment results (relative activation fold) PPARγ ([2]; 0.01 uM): 1.86 fold | Experiment results (relative activation fold) PPARγ ([2]; 0.1 uM): 3.30 fold | Experiment results (relative activation fold) PPARγ ([2]; 1 uM): 3.80 fold | Experiment results (relative activation fold) PPARγ ([2]; 5 uM): 4.08 fold | Experiment results (relative activation fold) PPARγ ([2]; 10 uM): 4.35 fold | EC50 [2]: 0.025 µM | Experiment results (relative activation fold) PPARα ([3]; 0.001 uM): 1.15 fold | Experiment results (relative activation fold) PPARα ([3]; 0.01 uM): 1.32 fold | Experiment results (relative activation fold) PPARα ([3]; 0.1 uM): 1.42 fold | Experiment results (relative activation fold) PPARα ([3]; 1 uM): 1.55 fold | Experiment results (relative activation fold) PPARα ([3]; 5 uM): 1.66 fold | Experiment results (relative activation fold) PPARα ([3]; 10 uM): 1.94 fold | EC50 [3]: 2.88 µM

CCc1cc(OCCc2nc(-c3ccc(C#N)cc3)oc2C)ccc1CCC(=O)O [Compound 8]
Experiment results (relative activation fold) PPARδ ([1]; 0.001 uM): 1.65 fold | Experiment results (relative activation fold) PPARδ ([1]; 0.01 uM): 2.69 fold | Experiment results (relative activation fold) PPARδ ([1]; 0.1 uM): 3.58 fold | Experiment results (relative activation fold) PPARδ ([1]; 1 uM): 3.94 fold | Experiment results (relative activation fold) PPARδ ([1]; 5 uM): 4.23 fold | Experiment results (relative activation fold) PPARδ ([1]; 10 uM): 4.40 fold | EC50 [1]: 0.006 µM | Experiment results (relative activation fold) PPARγ ([2]; 0.001 uM): 1.38 fold | Experiment results (relative activation fold) PPARγ ([2]; 0.01 uM): 2.29 fold | Experiment results (relative activation fold) PPARγ ([2]; 0.1 uM): 3.72 fold | Experiment results (relative activation fold) PPARγ ([2]; 1 uM): 4.75 fold | Experiment results (relative activation fold) PPARγ ([2]; 5 uM): 4.29 fold | Experiment results (relative activation fold) PPARγ ([2]; 10 uM): 4.24 fold | EC50 [2]: 0.022 µM | Experiment results (relative activation fold) PPARα ([3]; 0.001 uM): 1.23 fold | Experiment results (relative activation fold) PPARα ([3]; 0.01 uM): 1.35 fold | Experiment results (relative activation fold) PPARα ([3]; 0.1 uM): 1.48 fold | Experiment results (relative activation fold) PPARα ([3]; 1 uM): 1.41 fold | Experiment results (relative activation fold) PPARα ([3]; 5 uM): 1.71 fold | Experiment results (relative activation fold) PPARα ([3]; 10 uM): 1.93 fold | EC50 [3]: 5.25 µM

CCc1cc(OCCc2nc(-c3ccc(C(N)=O)cc3)oc2C)ccc1CCC(=O)O [Compound 9]
Experiment results (relative activation fold) PPARδ ([1]; 0.001 uM): 1.18 fold | Experiment results (relative activation fold) PPARδ ([1]; 0.01 uM): 1.40 fold | Experiment results (relative activation fold) PPARδ ([1]; 0.1 uM): 2.25 fold | Experiment results (relative activation fold) PPARδ ([1]; 1 uM): 3.38 fold | Experiment results (relative activation fold) PPARδ ([1]; 5 uM): 4.08 fold | Experiment results (relative activation fold) PPARδ ([1]; 10 uM): 3.92 fold | EC50 [1]: 0.331 µM | Experiment results (relative activation fold) PPARγ ([2]; 0.001 uM): 1.09 fold | Experiment results (relative activation fold) PPARγ ([2]; 0.01 uM): 1.51 fold | Experiment results (relative activation fold) PPARγ ([2]; 0.1 uM): 3.20 fold | Experiment results (relative activation fold) PPARγ ([2]; 1 uM): 4.34 fold | Experiment results (relative activation fold) PPARγ ([2]; 5 uM): 5.04 fold | Experiment results (relative activation fold) PPARγ ([2]; 10 uM): 4.26 fold | EC50 [2]: 0.047 µM | Experiment results (relative activation fold) PPARα ([3]; 0.001 uM): 1.25 fold | Experiment results (relative activation fold) PPARα ([3]; 0.01 uM): 1.17 fold | Experiment results (relative activation fold) PPARα ([3]; 0.1 uM): 1.32 fold | Experiment results (relative activation fold) PPARα ([3]; 1 uM): 1.56 fold | Experiment results (relative activation fold) PPARα ([3]; 5 uM): 1.63 fold | Experiment results (relative activation fold) PPARα ([3]; 10 uM): 1.81 fold | EC50 [3]: 1.15 µM

CN(CCOc1ccc(CC2SC(=O)NC2=O)cc1)c1ccccn1 (stereo not shown) [rosiglitazone]
LD50 [4]: 3000 to 4000 mg/kg
